Experimental data taken from patent US20020026053A1, “Novel 3-(substituted) -2- indolinones compounds and use thereof as inhibitors of protein kinase activity” (priority 1997, published 2002).

The compounds below were run against T1, EGFR (Homo sapiens, UniProt P00533) (assay: Biochemical EGFR Assay).
T1 construct: endogenous in cells; host or cells: A431 cells (lysate, captured with SUMO1 anti-EGFR antibody)
T1 sequence (P00533 25-1210): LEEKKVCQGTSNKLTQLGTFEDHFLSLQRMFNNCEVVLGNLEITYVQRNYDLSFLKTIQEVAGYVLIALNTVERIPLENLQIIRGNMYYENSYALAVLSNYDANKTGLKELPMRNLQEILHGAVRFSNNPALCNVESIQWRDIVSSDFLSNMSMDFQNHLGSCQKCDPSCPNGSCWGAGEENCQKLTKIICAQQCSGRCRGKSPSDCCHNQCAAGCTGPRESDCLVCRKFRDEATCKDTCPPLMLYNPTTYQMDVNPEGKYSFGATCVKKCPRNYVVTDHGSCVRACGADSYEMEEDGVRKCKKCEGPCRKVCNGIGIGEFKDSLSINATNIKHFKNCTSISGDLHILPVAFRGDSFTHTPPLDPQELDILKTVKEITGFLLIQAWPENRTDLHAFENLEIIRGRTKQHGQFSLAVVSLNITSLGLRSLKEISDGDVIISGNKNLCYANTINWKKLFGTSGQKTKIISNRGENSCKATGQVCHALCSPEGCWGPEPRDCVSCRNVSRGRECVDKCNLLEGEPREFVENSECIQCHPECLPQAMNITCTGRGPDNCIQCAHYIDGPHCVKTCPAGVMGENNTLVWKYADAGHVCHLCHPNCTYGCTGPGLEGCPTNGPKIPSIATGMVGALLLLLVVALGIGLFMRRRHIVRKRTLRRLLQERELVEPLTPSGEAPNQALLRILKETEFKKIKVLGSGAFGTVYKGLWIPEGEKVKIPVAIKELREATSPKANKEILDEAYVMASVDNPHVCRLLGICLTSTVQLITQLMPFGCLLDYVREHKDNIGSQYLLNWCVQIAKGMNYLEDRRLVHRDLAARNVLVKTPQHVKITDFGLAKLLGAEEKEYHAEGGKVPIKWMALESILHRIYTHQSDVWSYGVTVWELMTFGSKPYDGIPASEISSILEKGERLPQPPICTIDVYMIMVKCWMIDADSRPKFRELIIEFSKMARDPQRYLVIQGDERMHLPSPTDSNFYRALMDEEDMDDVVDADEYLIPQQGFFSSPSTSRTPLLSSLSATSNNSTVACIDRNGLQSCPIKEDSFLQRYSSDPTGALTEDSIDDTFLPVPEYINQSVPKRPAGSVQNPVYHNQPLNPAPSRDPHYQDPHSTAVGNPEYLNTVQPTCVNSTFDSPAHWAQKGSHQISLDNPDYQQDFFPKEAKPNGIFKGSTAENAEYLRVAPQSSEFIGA
Parameters: concentration or dose not given beside the values
Outline: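 EGFR from A431 lysate was captured on anti-EGFR-coated wells and preincubated 30 min with compound (diluted 1:10 in TBS) at room temperature. After ATP/MnCl2 phosphorylation for 5 min, the reaction was stopped with EDTA. Phosphotyrosine was detected by ELISA (anti-phosphotyrosine, peroxidase conjugate, ABTS) at 410 nm.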
In the case of `O=C1Nc2ccc(CCCl)cc2C1=Cc1cc(F)cc(F)c1` [10735/G04], the “Biochem EGFR % Inhibition (P.167)” value is reported as 22.8%. For `O=C1Nc2ccc(CCCl)cc2C1=Cc1cccc(C(F)(F)F)c1` [10735/G05], the “Biochem EGFR % Inhibition (P.167)” value was 16.7%. With `O=C1Nc2ccc(CCCl)cc2C1=Cc1cc(C(F)(F)F)cc(C(F)(F)F)c1` [10735/G06] the “Biochem EGFR % Inhibition (P.167)” value was 2.1%.
